{
  "source": "patent US7687453B2",
  "about": "“Method for administering insulin to the buccal region” (Generex Pharmaceuticals Incorporated, priority 1998, dated 2010)",
  "key": {"[1]": {"system": "meal glucose", "assay": "Meal glucose, oral mixed micellar insulin vs injection, Type II diabetic volunteers (Example 12)", "type": "in vivo, human", "details": "injection 10 units, avg of 10 Type II diabetics, meal 30 min after dosing", "method": "The mixed micellar formulation of Example 9 was tested in diabetic volunteers under controlled conditions to determine the oral insulin effect on meal glucose when compared to injected insulin.\nIn one set of tests, ten Type II diabetic human volunteers who took insulin, by injection three times a day, were studied. In another set of tests the volunteers were tested with insulin, taken orally. The volunteers fasted from midnight prior to the tests, with food being taken 30 minutes after dosing. The meals were standard Sastacal 240 mL liquid diet approved by the Diabetic Society, containing 400 calories.\nOn the first day, the volunteers received 10 units insulin by injection (regular fast acting insulin, available from Eli Lilly). On the second day, the volunteers received 30 units of the above-prepared oral insulin (3 times the injection dose). In both tests, blood glucose levels were monitored every 15 minutes by Bayer's Glucometer Elite."}, "[2]": {"system": "blood glucose", "assay": "Blood glucose, oral mixed micellar insulin vs injection, fasted Type II diabetic volunteers (Example 8)", "type": "in vivo, human", "details": "injection 10 units, avg of 10 fasted Type II diabetics", "method": "In one set of tests, ten Type II diabetic human volunteers who took insulin, by injection three times a day, were studied. In another set of tests the volunteers were tested with insulin, faken orally. The volunteers fasted from midnight prior to the test, with no food being taken during the 4 hour study. On the first day, the volunteers received 10 units insulin by injection (regular fast acting insulin, available from Eli Lilly). On the second day, the volunteers received 30 units (1 mL volume per drop, approximately 20 drops) of the above-prepared oral insulin (3 times the injection dose). In both tests, blood glucose levels were monitored every 15 minutes by Bayer's Glucometer Elite."}},
  "data": [
    {"substance": "regular fast acting insulin: regular fast acting insulin, available from Eli Lilly, given by injection (10 units)", "values": [
      {"measurement": "Blood glucose levels", "setting": "[1]; 0 min", "value": 8.7, "unit": "mmol/L"},
      {"measurement": "Blood glucose levels", "setting": "[1]; 15 min", "value": 8.8, "unit": "mmol/L"},
      {"measurement": "Blood glucose levels", "setting": "[1]; 30 min", "value": 8.9, "unit": "mmol/L"},
      {"measurement": "Blood glucose levels", "setting": "[1]; 45 min", "value": 10.1, "unit": "mmol/L"},
      {"measurement": "Blood glucose levels", "setting": "[1]; 60 min", "value": 11.8, "unit": "mmol/L"},
      {"measurement": "Blood glucose levels", "setting": "[1]; 75 min", "value": 11.8, "unit": "mmol/L"},
      {"measurement": "Blood glucose levels", "setting": "[1]; 90 min", "value": 12.2, "unit": "mmol/L"},
      {"measurement": "Blood glucose levels", "setting": "[1]; 105 min", "value": 11.2, "unit": "mmol/L"},
      {"measurement": "Blood glucose levels", "setting": "[1]; 120 min", "value": 10.4, "unit": "mmol/L"},
      {"measurement": "Blood glucose levels", "setting": "[1]; 135 min", "value": 8.4, "unit": "mmol/L"},
      {"measurement": "Blood glucose levels", "setting": "[1]; 150 min", "value": 7.3, "unit": "mmol/L"},
      {"measurement": "Blood glucose levels", "setting": "[1]; 165 min", "value": 6.5, "unit": "mmol/L"},
      {"measurement": "Blood glucose levels", "setting": "[1]; 180 min", "value": 4.3, "unit": "mmol/L"},
      {"measurement": "Blood glucose levels", "setting": "[2]; 0 min", "value": 6.8, "unit": "mmol/L"},
      {"measurement": "Blood glucose levels", "setting": "[2]; 15 min", "value": 6.9, "unit": "mmol/L"},
      {"measurement": "Blood glucose levels", "setting": "[2]; 30 min", "value": 6.1, "unit": "mmol/L"},
      {"measurement": "Blood glucose levels", "setting": "[2]; 45 min", "value": 5.8, "unit": "mmol/L"},
      {"measurement": "Blood glucose levels", "setting": "[2]; 60 min", "value": 5.8, "unit": "mmol/L"},
      {"measurement": "Blood glucose levels", "setting": "[2]; 75 min", "value": 5.8, "unit": "mmol/L"},
      {"measurement": "Blood glucose levels", "setting": "[2]; 90 min", "value": 5.4, "unit": "mmol/L"},
      {"measurement": "Blood glucose levels", "setting": "[2]; 105 min", "value": 5.4, "unit": "mmol/L"},
      {"measurement": "Blood glucose levels", "setting": "[2]; 120 min", "value": 5.2, "unit": "mmol/L"},
      {"measurement": "Blood glucose levels", "setting": "[2]; 135 min", "value": 5.1, "unit": "mmol/L"},
      {"measurement": "Blood glucose levels", "setting": "[2]; 150 min", "value": 4.9, "unit": "mmol/L"},
      {"measurement": "Blood glucose levels", "setting": "[2]; 165 min", "value": 4.9, "unit": "mmol/L"},
      {"measurement": "Blood glucose levels", "setting": "[2]; 180 min", "value": 4.8, "unit": "mmol/L"},
      {"measurement": "Blood glucose levels", "setting": "[2]; 195 min", "value": 4.8, "unit": "mmol/L"},
      {"measurement": "Blood glucose levels", "setting": "[2]; 210 min", "value": 5.2, "unit": "mmol/L"},
      {"measurement": "Blood glucose levels", "setting": "[2]; 225 min", "value": 5.2, "unit": "mmol/L"},
      {"measurement": "Blood glucose levels", "setting": "[2]; 240 min", "value": 5.4, "unit": "mmol/L"}
    ]}
  ]
}
